Reference: patent US20230310435A1, “HOST DEFENSE PROTEIN (HDP) MIMETICS FOR PROPHYLAXIS AND/OR TREATMENT OF INFLAMMATORY DISEASES OF THE GASTROINTESTINAL TRACT” (priority 2015, published 2023)
pIC50: −log10 of the molar value. Where “and” joins values, the source holds several entries; their conditions need not be identical. Equal values may be shown once. Where a name gives a salt, the structure may show the parent alone. Read-outs that look alike come from different tables or passages of the source.

Tests used:
[1] = test system: LPS-induced IL-6 release, NR8383 cells; experiment: LPS-induced IL-6 release in NR8383 rat macrophages (ELISA); type: cell-based; conditions: Macrophage
Experimental: Method for FIG. 10. […] After 8 hours, supernatants were collected for IL-6 measurement by ELISA using immunoassay kit (R&D Systems, Minneapolis, MN) according to manufacturer's instructions.
The inhibition of IL-6 induction assay was performed according to the Method described for FIG. 10.
(§1) PDE4 and PDE3 inhibition results in subsequent down-regulation of pro-inflammatory cytokines/chemokines and its regulators, and experiments were conducted to confirm such down-regulation by brilacidin in ex vivo cell-based assays. In these assays, cells were exposed to brilacidin 45 minutes before an 8-hour lipopolysaccharide (LPS) stimulation in the presence of brilacidin; cytokine/enzyme concentrations were determined by ELISA using a standard immunoassay kit.

[2] = test system: acetic acid-induced colitis; type: in vivo; conditions: for reduction of UC score: not significantly
Experimental: (§2) Method for FIG. 14. […] Balb/c mice were fasted for 24 hours. Colitis was induced by injecting 200 μL of 4% acetic acid into the rectum. […] Another group of animals were treated with 5-ASA (5-aminosalicylic acid or mesalamine), and another received no treatment. Seven days after the first dose, five cm of intestine were cleaned in cold saline then weighed.
as §2, with “15.” for “14.”, “dose the colon was examined visually for mucosal injury and scored according to the Table below.” for “dose, five cm of intestine were cleaned in cold saline then weighed.”
Briefly, colitis was induced by injecting 4% acetic acid into the rectum.

human PDE3A = human PDE3A (Homo sapiens, UniProt Q14432); experiment: PDE-Glo phosphodiesterase assay, PDE3; type: biochemical; conditions: 2.75 ng PDE3A, 1 μM cAMP substrate, 15 min pre-incubation; read-out: IC50, inhibition of PDE3
Experimental: Method for FIG. 3. […] The compounds and PDE3A were mixed and pre-incubated at room temperature for 15 minutes. Substrate was added and the reaction was incubated for 7 minutes at room temperature. Data are presented as luminescence units (RLU).
Method for FIG. 4. Phosphodiesterase inhibition assays of PDE3 were performed using PMX-60056. The PDE-Glo phosphodiesterase assay (Promega, Madison, WI, USA Catalog No. V1361) was performed according to manufacturer's instruction using 2.75 ng of PDE3A, 1 μM cAMP substrate and PMX60056. The compounds and PDE3A were mixed and pre-incubated at room temperature for 15 minutes. Substrate was added and the reaction was incubated for 7 minutes at room temperature. Data are presented as luminescence units (RLU).
The compounds and PDE3A were mixed and pre-incubated at room temperature for 15 minutes. Substrate was added and the reaction was incubated. […]
as §1

[3] = test system: LPS-induced TNF-α release, NR8383 cells; experiment: LPS-induced TNF-α production in NR8383 rat macrophages (ELISA); type: cell-based
Experimental: Method for FIG. 5. TNF-alpha assays were performed using PMX-30063. […] TNF-α concentrations in the supernatants were determined by ELISA using an immunoassay kit specific for rat TNF-α (R&D Systems, Minneapolis, MN) according to manufacturer's instructions.
Method for FIG. 6. TNF-alpha assays were performed using PMX-60056. NR8383 rat macrophage cells were pretreated with PMX-60056 for 45 minutes followed by treatment with 1 μg/ml LPS from E. coli (Sigma, St. Louis, MO) for 8 hours. TNF-α concentrations in the supernatants were determined by ELISA using an immunoassay kit specific for rat TNF-α (R&D Systems, Minneapolis, MN) according to manufacturer's instructions.
The TNF-α inhibition assay was performed according to the Method described for FIG. 5. […] TNF-α concentrations in the supernatants were determined by ELISA using an immunoassay kit specific for rat TNF-α (R&D Systems).
The TNF-α inhibition assay was performed according to the Method described for FIG. 6. NR8383 rat macrophage cells (CRL-2192. ATCC) were pretreated with PMX-60056 for 45 minutes followed by treatment with 1 μg/ml LPS for 8 hours. TNF-α concentrations in the supernatants were determined by ELISA using an immunoassay kit specific for rat TNF-α (R&D Systems).
as §1

[4] = test system: LPS-induced IL-1β release, NR8383 cells; experiment: LPS-induced IL-1β release in NR8383 rat alveolar macrophages (ELISA); type: cell-based; conditions: Macrophage, 8-hour brilacidin and LPS exposure, read-out: IC50, inhibition of LPS-induced IL-1β release
Experimental: To examine the effect of brilacidin on the pro-inflammatory cytokine IL-1β production in cells, rat alveolar macrophage (NR8383) cells were pretreated with a range of brilacidin concentrations for 45 minutes, followed by treatment with 1 μg/ml LPS from E. coli (Sigma, St. Louis, MO) for 8 hours in the presence of brilacidin. After 8 hours, supernatants were collected for IL-1β measurement by ELISA. IL-1β was measured using an immunoassay kit according to manufacturer's instructions (Thermo Scientific, Rockford, IL).
as §1

Sequence of human PDE3A (Q14432 whole entry): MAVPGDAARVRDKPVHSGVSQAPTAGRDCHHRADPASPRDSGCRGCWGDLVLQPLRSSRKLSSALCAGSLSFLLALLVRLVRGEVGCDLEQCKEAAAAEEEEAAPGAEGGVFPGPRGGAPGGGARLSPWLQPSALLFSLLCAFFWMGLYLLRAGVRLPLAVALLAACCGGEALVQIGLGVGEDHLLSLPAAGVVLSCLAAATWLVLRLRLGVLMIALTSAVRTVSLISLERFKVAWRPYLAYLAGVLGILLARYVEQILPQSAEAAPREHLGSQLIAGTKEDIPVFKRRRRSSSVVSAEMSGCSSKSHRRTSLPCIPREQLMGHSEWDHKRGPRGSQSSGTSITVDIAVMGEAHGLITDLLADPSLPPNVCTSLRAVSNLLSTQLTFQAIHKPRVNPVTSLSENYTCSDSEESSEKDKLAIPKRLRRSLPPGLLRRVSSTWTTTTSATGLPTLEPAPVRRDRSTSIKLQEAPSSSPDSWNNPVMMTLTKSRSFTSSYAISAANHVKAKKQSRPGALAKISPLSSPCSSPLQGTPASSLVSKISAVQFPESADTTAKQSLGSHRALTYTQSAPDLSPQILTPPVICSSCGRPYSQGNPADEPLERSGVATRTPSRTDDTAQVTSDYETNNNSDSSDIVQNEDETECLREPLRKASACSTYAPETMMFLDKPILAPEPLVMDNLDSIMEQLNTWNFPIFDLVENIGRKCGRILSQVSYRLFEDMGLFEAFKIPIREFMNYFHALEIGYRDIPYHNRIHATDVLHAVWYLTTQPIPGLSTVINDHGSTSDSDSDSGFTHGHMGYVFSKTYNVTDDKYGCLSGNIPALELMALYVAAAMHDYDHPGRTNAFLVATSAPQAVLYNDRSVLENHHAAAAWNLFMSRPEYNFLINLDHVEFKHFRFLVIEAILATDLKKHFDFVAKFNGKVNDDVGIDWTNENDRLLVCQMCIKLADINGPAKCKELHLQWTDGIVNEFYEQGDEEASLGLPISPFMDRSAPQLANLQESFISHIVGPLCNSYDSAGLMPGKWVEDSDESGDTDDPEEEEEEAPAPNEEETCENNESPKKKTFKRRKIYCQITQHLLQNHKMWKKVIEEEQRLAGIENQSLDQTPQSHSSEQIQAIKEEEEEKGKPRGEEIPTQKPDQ

N=C(N)NCCCCC(=O)Nc1cc(C(F)(F)F)cc(NC(=O)c2cc(C(=O)Nc3cc(C(F)(F)F)cc(NC(=O)CCCCNC(=N)N)c3O[C@@H]3CCNC3)ncn2)c1O[C@@H]1CCNC1 [PMX-30063, N^4,N^6-bis(2-((R)-pyrrolidin-3-yloxy)-3-((4-carbamoylbutyl)guanidine)-5-(trifluoromethyl)phenyl)pyrimidine-4,6-dicarboxamide tetrahydrochloride salt]
pIC50 ([1]; NR8383 cells, ELISA, 45 min pretreatment, 8-hour LPS, read-out: IC50, inhibition of LPS-induced IL-6 release): 6.56
inhibition at 0.5 µM ([1]; at 0.5 μM, NR8383, LPS 1 μg/ml 8 h, read-out: decrease in IL-6 levels / inhibition of LPS induced IL-6 production): ~50%
reduction of UC score ([2]; 40 mg/kg (so in the source) intrarectally): 67%
reduction of median UC score ([2]; 100 mg/kg intrarectally): 33%
reduction of UC score ([2]; 200 mg/kg intrarectally): 67%
reduction of intestine weights compared to untreated controls ([2]; 400 mg/kg intrarectally): 17%
ulcerative colitis score compared to untreated controls (in words) ([2]; 400 mg/kg intrarectally): significantly reduced
tolerability (in words) ([2]; mouse, in vivo): well-tolerated
ulcerative colitis score (in words) ([2]; rectal administration, 100, 200, 400 mg/kg): dose dependent decrease
intestine weights compared to untreated controls (in words) ([2]; rectal administration, 100-400 mg/kg once daily): reduced, but not significantly
pIC50 (human PDE3A): ~5.74 and 5.74
effect on LPS-induced TNF-α production (in words) ([3]; NR8383, 45 min pretreatment, 1 μg/ml LPS 8 h): inhibited
inhibition at 0.5 µM ([3]; Rattus norvegicus, Macrophage, 8 h): ~50%
pIC50 ([3]; Rattus norvegicus, Macrophage, NR8383 cells, ELISA, 45 min pretreatment, 8-hour LPS, read-out: IC50, inhibition of LPS-induced TNF-α release): 6.35
pIC50 [4]: 6.15
